Test results reported in the supplement of paper PMC10307832.

compound: COc1cc(Nc2ncc(F)c(Nc3ccc4c(n3)NC(=O)C(C)(C)O4)n2)cc(OC)c1OC [R406] + CS(=O)(=O)N1CCN(Cc2cc3nc(-c4cccc5[nH]ncc45)nc(N4CCOCC4)c3s2)CC1 [Pictilisib] (partner 1 µM); experiment: relative viability (nuclei count vs DMSO), 5 days (fraction); higher = more cells survive; details: first compound 0.08 µM
Outline: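 Lung cancer cell lines were pin-tool dosed in 1536-well plates on the day after seeding, with either a lone drug or a fixed anchor-drug dose plus five library-drug doses (not always all listed) in √10 steps. Nuclei were counted on 4× images after 5 days. Relative viability is the ratio of treated-well to vehicle-well nuclei counts, with each value a median of duplicate plates.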

Q: With LU99A as the cell line, how does the relative viability read?
A: 0.368

Q: With BEN as the cell line, how does the relative viability read?
A: 0.581

Q: For HARA, which relative viability is on record?
A: 0.416

Q: With HCC-78 as the cell line, how does the relative viability read?
A: 0.233

Q: NCI-H322M was tested. Which relative viability did it give?
A: 0.519

Q: LCLC-97TM1 was tested. Which relative viability did it give?
A: 0.174

Q: How did the relative viability turn out when NCI-H2009 was run?
A: 0.793

Q: Which relative viability does the source give for A-427 here?
A: 0.72

Q: For NCI-H460, which relative viability is on record?
A: 0.33

Q: NCI-H727 was tested. Which relative viability did it give?
A: 0.386

Q: NCI-H1734 was tested. Which relative viability did it give?
A: 0.434

Q: For NCI-H520, which relative viability is on record?
A: 0.286

Q: How did the relative viability turn out when NCI-H2347 was run?
A: 0.53

Q: Which relative viability does the source give for SW 1573 here?
A: 0.45

Q: Which relative viability does the source give for NCI-H1395 here?
A: 0.643

Q: 201T was tested. Which relative viability did it give?
A: 0.677

Q: NCI-H1915 was tested. Which relative viability did it give?
A: 0.942

same assay, conditions: first compound 0.253 µM

Q: HCC-366 was tested. Which relative viability did it give?
A: 0.163

Q: With NCI-H1666 as the cell line, how does the relative viability read?
A: 0.555

Q: NCI-H647 was tested. Which relative viability did it give?
A: 0.402

Q: For LK-2, which relative viability is on record?
A: 0.637

Q: NCI-H2087 was tested. Which relative viability did it give?
A: 1.07

Q: With NCI-H358 as the cell line, how does the relative viability read?
A: 0.323

Q: NCI-H2170 was tested. Which relative viability did it give?
A: 0.269

Q: How did the relative viability turn out when H3255 was run?
A: 0.533

Q: COR-L23 was tested. Which relative viability did it give?
A: 0.926

Q: Which relative viability does the source give for COR-L 105 here?
A: 0.401

Q: Which relative viability does the source give for IA-LM here?
A: 0.475

Q: With LOU-NH91 as the cell line, how does the relative viability read?
A: 0.526

Q: Which relative viability does the source give for NCI-H1793 here?
A: 0.354

Q: NCI-H2405 was tested. Which relative viability did it give?
A: 0.475

Q: For HOP-62, which relative viability is on record?
A: 0.846

Q: Which relative viability does the source give for HCC-44 here?
A: 0.647

Q: How did the relative viability turn out when A549 was run?
A: 0.694

Q: How did the relative viability turn out when SK-MES-1 was run?
A: 0.325

Q: For LU99A, which relative viability is on record?
A: 0.296

Q: How did the relative viability turn out when BEN was run?
A: 0.642

Q: Which relative viability does the source give for HARA here?
A: 0.349

Q: Which relative viability does the source give for HCC-78 here?
A: 0.219

Q: NCI-H322M was tested. Which relative viability did it give?
A: 0.484

Q: LCLC-97TM1 was tested. Which relative viability did it give?
A: 0.172

Q: For NCI-H2009, which relative viability is on record?
A: 0.76

Q: A-427 was tested. Which relative viability did it give?
A: 0.846

Q: With NCI-H460 as the cell line, how does the relative viability read?
A: 0.426

Q: Which relative viability does the source give for NCI-H727 here?
A: 0.508

Q: With NCI-H1734 as the cell line, how does the relative viability read?
A: 0.478

Q: Which relative viability does the source give for NCI-H520 here?
A: 0.408

Q: Which relative viability does the source give for NCI-H2347 here?
A: 0.952

Q: SW 1573 was tested. Which relative viability did it give?
A: 0.499

Q: How did the relative viability turn out when NCI-H1395 was run?
A: 0.668

Q: With 201T as the cell line, how does the relative viability read?
A: 0.725

Q: With NCI-H1915 as the cell line, how does the relative viability read?
A: 1.03

same assay, conditions: first compound 0.8 µM

Q: How did the relative viability turn out when HCC-366 was run?
A: 0.141

Q: Which relative viability does the source give for NCI-H1666 here?
A: 0.515

Q: Which relative viability does the source give for NCI-H647 here?
A: 0.418

Q: With LK-2 as the cell line, how does the relative viability read?
A: 0.427

Q: Which relative viability does the source give for NCI-H2087 here?
A: 0.92

Q: NCI-H358 was tested. Which relative viability did it give?
A: 0.319

Q: Which relative viability does the source give for NCI-H2170 here?
A: 0.302

Q: For H3255, which relative viability is on record?
A: 0.495

Q: With COR-L23 as the cell line, how does the relative viability read?
A: 1.14

Q: COR-L 105 was tested. Which relative viability did it give?
A: 0.38

Q: IA-LM was tested. Which relative viability did it give?
A: 0.359

Q: With LOU-NH91 as the cell line, how does the relative viability read?
A: 0.46

Q: NCI-H1793 was tested. Which relative viability did it give?
A: 0.492

Q: NCI-H2405 was tested. Which relative viability did it give?
A: 0.396

Q: HOP-62 was tested. Which relative viability did it give?
A: 0.863

Q: With HCC-44 as the cell line, how does the relative viability read?
A: 0.611

Q: With A549 as the cell line, how does the relative viability read?
A: 0.6

Q: Which relative viability does the source give for SK-MES-1 here?
A: 0.333

Q: For LU99A, which relative viability is on record?
A: 0.357

Q: How did the relative viability turn out when BEN was run?
A: 0.57

Q: HARA was tested. Which relative viability did it give?
A: 0.405

Q: With HCC-78 as the cell line, how does the relative viability read?
A: 0.259

Q: For NCI-H322M, which relative viability is on record?
A: 0.57

Q: Which relative viability does the source give for LCLC-97TM1 here?
A: 0.218

Q: How did the relative viability turn out when NCI-H2009 was run?
A: 0.892

Q: A-427 was tested. Which relative viability did it give?
A: 0.69

Q: For NCI-H460, which relative viability is on record?
A: 0.38

Q: With NCI-H727 as the cell line, how does the relative viability read?
A: 0.354

Q: Which relative viability does the source give for NCI-H1734 here?
A: 0.593

Q: Which relative viability does the source give for NCI-H520 here?
A: 0.377

Q: With NCI-H2347 as the cell line, how does the relative viability read?
A: 0.605

Q: With SW 1573 as the cell line, how does the relative viability read?
A: 0.543

Q: NCI-H1395 was tested. Which relative viability did it give?
A: 0.678

Q: 201T was tested. Which relative viability did it give?
A: 0.669

Q: NCI-H1915 was tested. Which relative viability did it give?
A: 0.972

same assay, conditions: first compound 2.53 µM

Q: With HCC-366 as the cell line, how does the relative viability read?
A: 0.113

Q: For NCI-H1666, which relative viability is on record?
A: 0.323

Q: For NCI-H647, which relative viability is on record?
A: 0.276

Q: How did the relative viability turn out when LK-2 was run?
A: 0.462

Q: For NCI-H2087, which relative viability is on record?
A: 0.352

Q: For NCI-H358, which relative viability is on record?
A: 0.272

Q: How did the relative viability turn out when NCI-H2170 was run?
A: 0.194

Q: How did the relative viability turn out when H3255 was run?
A: 0.347

Q: COR-L23 was tested. Which relative viability did it give?
A: 0.681

Q: For COR-L 105, which relative viability is on record?
A: 0.366

Q: With IA-LM as the cell line, how does the relative viability read?
A: 0.409

Q: With LOU-NH91 as the cell line, how does the relative viability read?
A: 0.405

Q: For NCI-H1793, which relative viability is on record?
A: 0.168

Q: For NCI-H2405, which relative viability is on record?
A: 0.265

Q: HOP-62 was tested. Which relative viability did it give?
A: 0.467

Q: How did the relative viability turn out when HCC-44 was run?
A: 0.526

Q: A549 was tested. Which relative viability did it give?
A: 0.265

Q: Which relative viability does the source give for SK-MES-1 here?
A: 0.234

Q: For BEN, which relative viability is on record?
A: 0.623

Q: How did the relative viability turn out when HARA was run?
A: 0.248

Q: With HCC-78 as the cell line, how does the relative viability read?
A: 0.173

Q: With NCI-H322M as the cell line, how does the relative viability read?
A: 0.235

Q: Which relative viability does the source give for LCLC-97TM1 here?
A: 0.133

Q: For NCI-H2009, which relative viability is on record?
A: 0.289

Q: With A-427 as the cell line, how does the relative viability read?
A: 0.548

Q: For NCI-H460, which relative viability is on record?
A: 0.224

Q: NCI-H727 was tested. Which relative viability did it give?
A: 0.175

Q: NCI-H1734 was tested. Which relative viability did it give?
A: 0.248

Q: Which relative viability does the source give for NCI-H520 here?
A: 0.191

Q: How did the relative viability turn out when NCI-H2347 was run?
A: 0.624

Q: For SW 1573, which relative viability is on record?
A: 0.422

Q: Which relative viability does the source give for NCI-H1395 here?
A: 0.581

Q: Which relative viability does the source give for 201T here?
A: 0.591

Q: Which relative viability does the source give for NCI-H1915 here?
A: 0.364

same assay, conditions: first compound 8 µM

Q: Which relative viability does the source give for HCC-366 here?
A: 0.122

Q: With NCI-H1666 as the cell line, how does the relative viability read?
A: 0.359

Q: NCI-H647 was tested. Which relative viability did it give?
A: 0.147

Q: LK-2 was tested. Which relative viability did it give?
A: 0.304

Q: NCI-H2087 was tested. Which relative viability did it give?
A: 0.717

Q: Which relative viability does the source give for NCI-H358 here?
A: 0.228

Q: For NCI-H2170, which relative viability is on record?
A: 0.24

Q: With H3255 as the cell line, how does the relative viability read?
A: 0.331

Q: COR-L23 was tested. Which relative viability did it give?
A: 0.233

Q: COR-L 105 was tested. Which relative viability did it give?
A: 0.303

Q: IA-LM was tested. Which relative viability did it give?
A: 0.264

Q: With LOU-NH91 as the cell line, how does the relative viability read?
A: 0.414

Q: For NCI-H1793, which relative viability is on record?
A: 0.23

Q: How did the relative viability turn out when NCI-H2405 was run?
A: 0.175

Q: How did the relative viability turn out when HOP-62 was run?
A: 0.488

Q: HCC-44 was tested. Which relative viability did it give?
A: 0.335

Q: For A549, which relative viability is on record?
A: 0.0797

Q: With SK-MES-1 as the cell line, how does the relative viability read?
A: 0.195

Q: For LU99A, which relative viability is on record?
A: 0.211

Q: Which relative viability does the source give for BEN here?
A: 0.447

Q: HARA was tested. Which relative viability did it give?
A: 0.187

Q: HCC-78 was tested. Which relative viability did it give?
A: 0.185

Q: For NCI-H322M, which relative viability is on record?
A: 0.333

Q: How did the relative viability turn out when LCLC-97TM1 was run?
A: 0.148

Q: NCI-H2009 was tested. Which relative viability did it give?
A: 0.192

Q: A-427 was tested. Which relative viability did it give?
A: 0.546

Q: Which relative viability does the source give for NCI-H460 here?
A: 0.259

Q: For NCI-H727, which relative viability is on record?
A: 0.252

Q: NCI-H1734 was tested. Which relative viability did it give?
A: 0.281

Q: With NCI-H520 as the cell line, how does the relative viability read?
A: 0.195

Q: For NCI-H2347, which relative viability is on record?
A: 0.28

Q: With SW 1573 as the cell line, how does the relative viability read?
A: 0.31

Q: With NCI-H1395 as the cell line, how does the relative viability read?
A: 0.378

Q: Which relative viability does the source give for 201T here?
A: 0.57

Q: How did the relative viability turn out when NCI-H1915 was run?
A: 0.74

compound: COc1cc(Nc2ncc(F)c(Nc3ccc4c(n3)NC(=O)C(C)(C)O4)n2)cc(OC)c1OC [R406]; experiment: relative viability (nuclei count vs DMSO), 5 days (fraction); higher = more cells survive; details: 0.08 µM
Outline: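 Lung cancer cell lines in 1536-well plates were kept overnight at 37 °C, then pinned with five library-drug doses (not always all listed) spaced by √10 on vehicle-anchored plates. After 5 days without medium change, cells were fixed, permeabilised and Hoechst-stained in one step, imaged at 4×, and nuclei were counted with MetaXpress. Viability is treated-well nuclei divided by vehicle-well nuclei, taken as the median over plates. Plates passed only with control CV below 25% and at least one doubling.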

Q: HCC-366 was tested. Which relative viability did it give?
A: 1
